The test system of one series is P. falciparum K1. Put plainly: In vitro activity against erythrocytic stages of P. falciparum, 3H-hypoxanthine incorporation assay. The format is cell-based. To be noted: Plasmodium falciparum. On the procedure: (§1) VI. Design and Results of the in vitro & in vivo Studies.
A. Drug inhibition of in vitro cultured P. falciparum parasite:[2] All in vitro assays were carried out twice independently in duplicate.In vitro activity against theerythrocytic stages of P. falciparum was determined by using a 3H-hypoxanthine incorporation assay, using the chloroquine and pyrimethamine resistant K1 strain and the standard drugs chloroquine (Sigma C6628) and artemisinin (Arteannuin, Qinghaosu; Sigma 36,159- 3). Compounds were dissolved in DMSO at 10 mg/mL and added to parasite cultures incubated in RPMI 1640 medium without hypoxanthine, supplemented with HEPES (5.94 g/L), NaHCO3 (2.1 g/L), neomycin (100U/mL), AlbumaxR (5 g/L), and washed human red cells A+ at 2.5% haematocrit (0.3% parasitaemia). Serial doubling dilutions of each drug were prepared in 96-well microtiter plates and incubated in a humidified atmosphere at 37 °C; 4% CO 2, 3% O2, 93% N2. After 48 h, 50 µLof 3H-hypoxanthine (= 0.5 µCi) was added to each well of the plate. The plates were incubated for an additional 24 h under the same conditions. The plates were then harvested with a Betaplate cell harvester (Wallac, Zurich, Switzerland), and the red blood cells were transferred onto a glass fiber filter and then washed with distilled water. The dried filters were inserted into a plastic foil with 10 mL of scintillation fluid and were counted in a Betaplate™ liquid scintillation counter (Wallac, Zurich, Switzerland); IC50values were calculated from sigmoidal inhibition curves using Microsoft Excel. […]

Series [1] in a line: In vitro cytotoxicity assay in L-6 cells (Alamar Blue). To be noted: rat. The method, then: as §1
A. Drug inhibition of in vitro cultured P. falciparum parasite:[2] […]
B. In vitro cytotoxicity assay: [2] Assays were performed in 96-well microtiter plates, each well containing 100 µl of RPMI 1640 medium supplemented with 1% L-glutamine (200mM) and 10% fetal bovine serum, and 4 x 10^4 L-6 cells (a primary cell line derived from rat skeletal myoblasts).
Serial drug dilutions of seven 3-fold dilution steps covering a range from 90 to 0.123 µg/mL were prepared. After 72 h of incubation the plates were inspected under an inverted microscope to assure growth of the controls and sterile conditions. 10µL of Alamar Blue was then added to each well and the plates incubated for another 2 h. Then the plates were read with a Spectramax Gemini XS microplatefluorometer (Molecular Devices Cooperation, Sunnyvale, CA, USA) using an excitation wave length of 536 nm and an emission wave length of 588 nm. Data were analysed using the microplate reader software Softmax Pro (Molecular Devices Cooperation, Sunnyvale, CA, USA).
Background: The colour change of resazurin is a common sign of viable cells or microbes.

Setting [2] is: K1 strain (chloroquine and pyrimethamine resistant), means of two independent assays, read-out: P. falc. EC50.
[3] abbreviates: L-6 cells (rat skeletal myoblasts).

Read-outs that look alike come from different tables or passages of the source.

As usually defined, the EC50 is the concentration giving half of the maximal effect. As usually defined, the melting point is the temperature of the solid-liquid transition.

On to `C/N=C1\S/C(=C\c2cc(C)n(-c3ccc(N4CCOCC4)cc3)c2C)C(=O)N1C` [Compound 39], for which the melting point lay within 333 to 334 °C. For the same compound, in the series on P. falciparum K1 (setting [2]), the EC50 was more than 13 µM. Further, the EC50 at 72 h in series [1] (setting [3]) is more than 220 µM.
Regarding `C/N=C1\S/C(=C\c2ccn(-c3ccccc3C(F)(F)F)c2)C(=O)N1C` [Compound 41], the melting point was 54 to 55 °C. Further, the EC50 with P. falciparum K1 (setting [2]) is 4.7 µM. The compound further had an EC50 at 72 h in series [1] (setting [3]) of 4 µM.
`Cc1cc(C=C2C(=O)NC(=O)NC2=O)c(C)n1-c1ccccc1C(F)(F)F` [Compound 51] had a melting point of more than 300 °C. Also, in the series with P. falciparum K1 (K1, read-out: P. falc. EC50), the EC50 amounted to 16 µM. For the same compound, in series [1], the EC50 at 72 h amounted to 120 µM.
`Cc1cc(/C=C2\S/C(=N\c3ccccc3)N(C)C2=O)c(C)n1-c1ccc(N2CCOCC2)cc1` [Compound 35]: the melting point worked out at 288 °C. Also, in the series with P. falciparum K1 (setting [2]), the EC50 amounted to 1.5 µM. This compound also gave an EC50 at 72 h in series [1] (setting [3]) of 120 µM.
The matching figures for `Cc1cc(/C=C2\S/C(=N\c3ccccc3)N(C3CCCCC3)C2=O)c(C)n1-c1ccc(N2CCOCC2)cc1` [Compound 26]: 155 to 156 °C, 0.09 µM and more than 170 µM.
In the case of `Cc1cc(/C=C2\NC(=O)NC2=O)c(C)n1-c1ccccc1` [Compound 50], the melting point is 267 to 270 °C (dec.). In addition, the 50% effective concentration (EC50) with P. falciparum K1 (setting [2]) was 11 µM. The compound also had an EC50 at 72 h in series [1] (setting [3]) of more than 320 µM.
For `C/N=C1\S/C(=C\c2cnn(-c3ccccc3C(F)(F)F)c2)C(=O)N1C` [Compound 43], the melting point lay within 170 to 172 °C. For the same compound, the EC50 in the series on P. falciparum K1 (setting [2]) was 3.6 µM. The same compound returned an EC50 at 72 h in series [1] (setting [3]) of 34 µM.
`Cc1cc(/C=C2\S/C(=N\c3ccccc3)N(C3CCCCC3)C2=O)c(C)n1-c1ccccc1` [Compound 22] displayed a melting point of 198 to 199 °C. Moreover, the EC50 in the series with P. falciparum K1 (setting [2]) was found to be 0.25 µM. The compound also showed an EC50 at 72 h in series [1] (setting [3]) of more than 200 µM.
In turn, `Cc1cc(/C=C2\S/C(=N\c3ccccc3)N(C3CCCCC3)C2=O)c(C)n1-c1ccc(C(F)(F)F)cc1` [Compound 23] returned a melting point of 218 to 220 °C. In addition, in the series with P. falciparum K1 (setting [2]), the EC50 turned out to be 0.25 µM. In series [1] (setting [3]), this compound displayed an EC50 at 72 h of more than 170 µM.
`Cc1cc(/C=C2\S/C(=N\c3ccccc3)N(C)C2=O)c(C)n1-c1ccccc1` [Compound 33] displayed a melting point of 203 to 205 °C. Besides, in the series on P. falciparum K1 (setting [2]), the EC50 came to 2.6 µM. Further, the EC50 at 72 h in series [1] (setting [3]) was more than 230 µM.
On to `CN1C(=O)/C(=C/c2cnn(-c3ccccc3C(F)(F)F)c2)S/C1=N\c1ccccc1` [Compound 38], for which the EC50 with P. falciparum K1 (setting [2]) turned out to be 4.6 µM. The EC50 at 72 h in series [1] (setting [3]) turned out to be 180 µM.
For `Cc1cc(/C=C2\S/C(=N\c3ccccc3)N(C)C2=O)c(C)n1CCN1CCOCC1` [Compound 36], in that order: 0.99 µM and more than 210 µM.
Take `CC1=CC(/C=C2\S/C(=N\c3ccccc3)N(C)C2=O)=C(C)C1c1ccccc1C(F)(F)F` (centres unmarked) [Compound 34]: in the series with P. falciparum K1 (setting [2]), the EC50 came out at 2.2 µM. Besides, the EC50 at 72 h in series [1] (setting [3]) is more than 200 µM.
`O=C1/C(=C/c2cnn(-c3ccccc3C(F)(F)F)c2)S/C(=N\c2ccccc2)N1C1CCCCC1` [Compound 32]: the EC50 in the series on P. falciparum K1 (setting [2]) turned out to be 1.9 µM. This compound also gave an EC50 at 72 h in series [1] (setting [3]) of more than 180 µM.
As for `Cc1cc(/C=C2\S/C(=N\c3ccccc3)N(C3CCCCC3)C2=O)c(C)[nH]1` [Compound 30], the EC50 in the series with P. falciparum K1 (setting [2]) amounted to 3.4 µM. The compound also had an EC50 at 72 h in series [1] (setting [3]) of 23 µM.
Consider `Cc1cc(/C=C2\S/C(=N\c3ccccc3)N(C3CCCCC3)C2=O)c(C)n1-c1cccc(C(F)(F)F)c1` [Compound 24], for which the EC50 in the series with P. falciparum K1 (setting [2]) amounted to 1.9 µM. In series [1] (setting [3]), this compound yielded an EC50 at 72 h of more than 170 µM.
For `Cc1cc(/C=C2\S/C(=N\c3ccccc3)N(C3CCCCC3)C2=O)c(C)n1CCN1CCOCC1` [Compound 27], the EC50 in the series with P. falciparum K1 (setting [2]) was 0.61 µM. Besides, the response in series [1] (setting [3]) was half-maximal at 71 µM (EC50 at 72 h).
For `C/N=C1\S/C(=C\c2cc(C)n(CCN3CCOCC3)c2C)C(=O)N1C` [Compound 40], in that order: 5.6 µM and 78 µM.
Turning to `COc1cc([C@@H]2c3cc4c(cc3[C@H](O)[C@H]3COC(=O)[C@H]23)OCO4)cc(OC)c1OC` [podophyllotoxin, reference compound], the response in series [1] was half-maximal at 5 ng/mL (EC50 at 72 h).

These data come from article PMC4607724, “Discovery and optimisation studies of antimalarial phenotypic hits” (European Journal of Medicinal Chemistry, 2015).
